For orientation: inhibition means the drop in the measured response relative to a control, in per cent. What is called IC50 is the concentration that inhibits the measured activity by half. The term viability denotes a read-out of living cells in per cent, often relative to untreated cells.

The values below come from paper PMC5979531, “Structural Requirements of Alkylglyceryl-L-Ascorbic Acid Derivatives for Melanogenesis Inhibitory Activity” (International Journal of Molecular Sciences, 2018).

In one series the test system is B16 melanoma 4A5 cells. The series can be described thus: Theophylline-stimulated melanogenesis inhibition (melanin content). The format is cell-based, murine. Conditions: Mus musculus, 72 h. An outline of the steps: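 Melanin-content inhibition: cells got compound with theophylline (1 mM) after 24 h pre-culture and were incubated 72 h. OD-based melanin inhibition was normalised to cell viability, [(A−B)/A]/(C/100)×100. IC50 values were read graphically.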

A short description of series [1]: Cell viability of B16 melanoma 4A5 cells. The format is cell-based, murine. The settings on record: mouse, B16 4A5 cells. Put shortly:
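After 24 h seeding in DMEM, B16 melanoma 4A5 cells received test compound plus theophylline (1 mM) for 72 h before viability readout. IC50 values read graphically.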

Series [2] in a line: Stability in aqueous solution at elevated temperature (HPLC residual ratio). The format is physicochemical. Conditions: 20 mg/mL at 125 °C in the dark, after 3 h. The method, then:
To determine stability, the samples were stored at 125 °C, and the residual ratio was calculated by measuring the remaining compound by HPLC. HPLC mobile phase conditions were as follows: AsA was described previously, 6 and 20 were 40% methanol containing 0.1% formic acid at flow rate of 0.2 mL/min [52, 53].

The test system of another series is tyrosinase from mushroom. The series can be described thus: Mushroom tyrosinase activity. The format is biochemical. The method, then:
Tyrosinase activities using L-tyrosine or L-DOPA as a substrate were determined according to the protocols described previously. Briefly, samples, L-tyrosine (2.5 mM, or L-DOPA, 3.0 mM), mushroom tyrosinase (46 units/mL), and phosphate buffer were mixed in a 96-well plate and incubated at 25 °C. (L-tyrosine; 30 min, L-DOPA; 5 min). The absorbance was then measured at 492 nm.

The next series addresses T1, mammalian tyrosinase (Mus musculus, UniProt P11344).
T1 construct: the cells were solubilized using 0.1% Triton X-100; endogenous in cells; host or cells: B16 melanoma cells (lysate, after 72 h of 1 mM theophylline)
T1 sequence (P11344 19-533): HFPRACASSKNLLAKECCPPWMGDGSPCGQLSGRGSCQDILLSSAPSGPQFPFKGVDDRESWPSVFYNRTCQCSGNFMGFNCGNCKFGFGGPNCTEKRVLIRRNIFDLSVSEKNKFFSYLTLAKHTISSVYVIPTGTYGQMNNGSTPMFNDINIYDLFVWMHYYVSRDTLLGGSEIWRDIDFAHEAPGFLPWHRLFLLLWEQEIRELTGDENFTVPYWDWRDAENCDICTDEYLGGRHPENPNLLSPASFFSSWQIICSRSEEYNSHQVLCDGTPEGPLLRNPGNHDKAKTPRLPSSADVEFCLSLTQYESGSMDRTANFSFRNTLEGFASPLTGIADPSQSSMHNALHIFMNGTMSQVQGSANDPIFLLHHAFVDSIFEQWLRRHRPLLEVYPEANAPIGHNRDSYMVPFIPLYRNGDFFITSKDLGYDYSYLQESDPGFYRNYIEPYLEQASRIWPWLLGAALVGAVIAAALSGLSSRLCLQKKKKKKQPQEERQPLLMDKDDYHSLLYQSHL
The series can be described thus: Mammalian tyrosinase activity (B16 cell lysate, L-DOPA). It counts as biochemical, murine. The settings on record: L-DOPA as substrate. How it is done: Tyrosinase activity using L-DOPA as a substrate was determined according to protocols described previously. Briefly, B16 cells were seeded into 6-well plates in DMEM. After preculture with theophylline (1 mM) for 72 h, the cells were solubilized using 0.1% Triton X-100. Fifty microliters of each lysate and sample was then mixed with 100 µL 2 mM L-DOPA. After the mixtures were incubated for 30 min at 37 °C, the absorbance of each solution at 492 nm was measured.

The subject of the next series is tyrosinase mRNA. Briefly: Expression of tyrosinase mRNA (qRT-PCR). Conditions: 30 µM, B16 4A5 cells, theophylline 1 mM, 72 h. It counts as cell-based, murine. The method, then:
(§1) The expression of tyrosinase, TRP-1, and TRP-2 mRNA was assessed according to previously reported methods. Briefly, murine B16 melanoma 4A5 cells were seeded into 96-well plates in DMEM. After 24 h of culture, a test compound and theophylline (1 mM) were added and incubated for 72 h. Then, the amount of each mRNA was quantified by quantitative reverse transcription PCR.
A general note: Quantitative PCR measures a nucleic acid by following its amplification.

The test system of another series is TRP-1 mRNA. The series can be described thus: Expression of TRP-1 mRNA (qRT-PCR). Conditions: 30 µM, B16 4A5 cells, theophylline 1 mM, 72 h. The format is cell-based, murine. The method, then:
as §1

The next series relates to TRP-2 mRNA. The series can be described thus: Expression of TRP-2 mRNA (qRT-PCR). The format is cell-based, murine. The settings on record: B16 4A5 cells, theophylline 1 mM, 72 h. The method, then: as §1
A further series relates to tyrosinase protein. Briefly: Expression of tyrosinase protein (western blotting). It counts as cell-based, murine. Conditions: B16 4A5 cells, theophylline 1 mM, 72 h. The method, then: The expression of tyrosinase protein was assessed according to a previously reported method. Briefly, murine B16 melanoma 4A5 cells were seeded into 6-well plates in DMEM. After 24 h of culture, a test compound and theophylline (1 mM) were added and incubated for 72 h. The expression of tyrosinase protein then was measured by western blotting.
On the technique in general: A western blot detects proteins with antibodies after separation by electrophoresis.

Series [3] deals with tyrosinase activity in B16 melanoma 4A5 cells. The series can be described thus: Tyrosinase activity in cultured B16 cells. Conditions: B16 4A5 cells, L-DOPA as substrate. It counts as cell-based, murine. The method, then: Tyrosinase activity in cultured cells was determined according to protocols described previously with modifications. Briefly, B16 melanoma 4A5 cells (4 × 10^3 cells/100 µL/well) were seeded into 96-well plates in DMEM. After pre-culture with sample and theophylline (1 mM) for 72 h, the cells were solubilized using 0.1% Triton X-100, and then each lysate was mixed with 50 μL 2 mM L-DOPA. After the mixtures were incubated for 1 h at 37 °C, the absorbance of the solution at 492 nm was measured using the microplate reader.

Consider `CCCCCCOC1=C(OCC(O)CO)[C@@H]([C@@H](O)CO)OC1=O` (stereo partly drawn) [compound 6, 3-O-(2,3-dihydroxypropyl)-2-O-hexyl-AsA], for which the inhibition at 3 µM in the series with B16 melanoma 4A5 cells (3 µM, theophylline-stimulated B16 4A5 cells) is -1.8 ± 4.9%. Also, in the series on B16 melanoma 4A5 cells (10 µM, theophylline-stimulated B16 4A5 cells), the inhibition at 10 µM came out at 5.6 ± 2%. In addition, the inhibition at 30 µM in the series on B16 melanoma 4A5 cells (30 µM, theophylline-stimulated B16 4A5 cells) stood at 26.2 ± 6%. For the same molecule, in the series on B16 melanoma 4A5 cells (100 µM, theophylline-stimulated B16 4A5 cells), the inhibition at 100 µM amounted to 53.1 ± 3.1%. For the same molecule, half-maximal inhibition in the series with B16 melanoma 4A5 cells (theophylline (1 mM)-stimulated B16 melanoma 4A5 cells) (IC50) was put at 81.4 µM. The viability at 72 h, 3 µM in series [1] (3 µM) was determined as 102%. Besides, the viability at 72 h, 10 µM in series [1] (10 µM) turned out to be 96.1%. Also, the viability at 72 h, 30 µM in [1] (30 µM) is 88.4%. In addition, in series [1] (100 µM), the viability at 72 h, 100 µM was 77.1%. Further, in [2], the “Residual ratio in aqueous solution” value was found to be 85%. Moreover, the “Inhibition (%) of mushroom tyrosinase” value with tyrosinase from mushroom (Substrate: L-DOPA, 30 µM) is −1.5 ± 1.5%; in the series on tyrosinase from mushroom (Substrate: L-DOPA, 100 µM), −1.0 ± 0.7%; with tyrosinase from mushroom (Substrate: L-Tyrosine, 30 µM), −1.5 ± 6.7%; in the series with tyrosinase from mushroom (Substrate: L-Tyrosine, 100 µM), 0.9 ± 1.4%. At mammalian tyrosinase, the “activity on mammalian tyrosinase (in words)” value is “did not show activity”. For the same molecule, the “Tyrosinase mRNA/β-actin mRNA” value in the series with tyrosinase mRNA is reported as 0.60 ± 0.07. Besides, the “TRP-1 mRNA/β-actin mRNA” value in the series with TRP-1 mRNA is 0.48 ± 0.15. In addition, the “TRP-2 mRNA/β-actin mRNA” value in the series on TRP-2 mRNA (30 µM) worked out at 0.53 ± 0.18; in the series with TRP-2 mRNA (100 µM) it was 0.70 ± 0.06. Further, the “expression of tyrosinase protein (in words)” value with tyrosinase protein is “suppressed tyrosinase protein expression in a concentration-dependent manner”. Also, the “tyrosinase activity in cultured cells (in words)” value in series [3] is “decreased tyrosinase activity in cultured cells”.
